Publication PMC3052630 (Bioorganic & medicinal chemistry letters, 2011)

What was measured:
[1] = mouse plasma and brain levels; type: in vivo; settings: 10 mg/kg ip 2h
rat pharmacokinetics = type: in vivo
p38 = p38 (Homo sapiens, UniProt Q16539); assay: p38 biochemical inhibition / selectivity; settings: for selectivity over p38: JNK3 vs p38
Sequence of p38 (Q16539 whole entry): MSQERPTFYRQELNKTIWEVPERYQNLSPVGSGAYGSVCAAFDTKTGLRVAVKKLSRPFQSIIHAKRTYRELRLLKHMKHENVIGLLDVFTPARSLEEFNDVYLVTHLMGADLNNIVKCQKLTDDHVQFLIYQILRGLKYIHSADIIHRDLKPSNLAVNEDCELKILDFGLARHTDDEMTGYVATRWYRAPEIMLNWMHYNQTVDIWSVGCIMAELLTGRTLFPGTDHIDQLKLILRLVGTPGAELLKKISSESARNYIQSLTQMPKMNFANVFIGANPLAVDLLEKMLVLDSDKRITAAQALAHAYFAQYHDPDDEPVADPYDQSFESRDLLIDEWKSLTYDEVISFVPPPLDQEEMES

Cc1ccc(-c2cccc3cnc(Nc4ccc(-n5cnc(N6CCOCC6)n5)cc4)nc23)cn1 [9a]
mouse [plasma] [1]: 2.72 µM

Cc1ncn(-c2ccc(Nc3ncc4cccc(-c5nccs5)c4n3)cc2)n1 [9g]
PK properties (rat pharmacokinetics; data not shown, species not given): poor

Cn1cc(-c2ccc3cnc(Nc4ccc(-n5cnc(N6CCOCC6)n5)cc4)nc3c2Cl)cn1 [13a]
clearance (rat pharmacokinetics; rat, plasma, iv, 1 mg/kg): 6 mL/min/kg | selectivity over p38 (p38): > 500 fold

Cn1cc(-c2ccc3cnc(Nc4ccc(-n5cnc(N6CCOCC6)n5)cc4)nc3c2-c2cnn(C)c2)cn1 [14d]
IC50 (p38): > 20 µM | selectivity over p38 (p38): > 2200 fold

Cn1cc(-c2ccc3cnc(Nc4ccc(-n5cnc(N6CCOCC6)n5)cc4)nc3c2)cn1 [compound 3]
mouse [brain] [1]: 7.2 µM
